Experimental data: publication PMC4089482, “Bacterial periplasmic sialic acid-binding proteins exhibit a conserved binding site” (Acta Crystallographica Section D: Biological Crystallography, 2014)

System: V. cholerae O1 biovar eltor strain N16961
Test: Growth-curve experiment in M9 minimal medium with different sugars
Assay type: cell-based, Vibrio cholerae
Conditions: M9 minimal medium supplemented with sugar (5 mg ml^−1; all at 5 mM), 37°C
Protocol: V. cholerae O1 biovar eltor strain N16961 was initially grown on LB agar plates. Subsequently, 3 ml M9 minimal medium supplemented with different sugars (5 mg ml^−1) was inoculated with bacteria at an OD600 of 0.07. These cultures were incubated in a 37°C shaker at 225 rev min^−1. Optical densities at A 600 were measured at various time points using a Spectronic GENESYS 20 Visible Spectrophotometer to observe the growth pattern of V. cholerae in different compounds. The different sugars used were Neu5Ac, Neu5Gc, fetuin (a glycoprotein of foetal serum that contains different sugars and sialic acid; Spiro, 1960[▶]), asialofetuin, galactose, glycerol, D-lactic acid, succinate, sucrose, DL-malic acid and fructose, all at 5 mM concentration. Based on the readings, a graph of OD600 was plotted.

O=C[C@H](O)[C@@H](O)[C@@H](O)[C@H](O)CO [galactose] was tested, and the “growth of V. cholerae in the presence of the compound (OD600)” value (shortened to “growth of V. cholerae”) was “No growth”.

In the case of OCC(O)CO [glycerol], the “growth of V. cholerae” value is reported as “No growth”.

In the case of O=C(O)CCC(=O)O [succinate], the “growth of V. cholerae” value is reported as “Little growth”.

For OC[C@H]1O[C@@](CO)(O[C@H]2O[C@H](CO)[C@@H](O)[C@H](O)[C@H]2O)[C@@H](O)[C@@H]1O [sucrose], the “growth of V. cholerae” value was “Little growth”.

B1: fetuin: a glycoprotein of foetal serum that contains different sugars and sialic acid (protein, UniProt P12763 19-359, looked up)
Alpha-2-HS-glycoprotein: IPLDPVAGYKEPACDDPDTEQAALAAVDYINKHLPRGYKHTLNQIDSVKVWPRRPTGEVYDIEIDTLETTCHVLDPTPLANCSVRQQTQHAVEGDCDIHVLKQDGQFSVLFTKCDSSPDSAEDVRKLCPDCPLLAPLNDSRVVHAVEVALATFNAESNGSYLQLVEISRAQFVPLPVSVSVEFAVAATDCIAKEVVDPTKCNLLAEKQYGFCKGSVIQKALGGEDVRVTCTLFQTQPVIPQPQPDGAEAEAPSAVPDAAGPTPSAAGPPVASVVVGPSVVAVPLPLHRAHYDLRHTFSGVASVESSSGEAFHVGKTPIVGQPSIPGGPVRLCPGRIRYFKI
With B1 the “growth of V. cholerae” value was “grows”.

B2: asialofetunin: asialofetuin, used as a carbon source in the growth experiment (protein, UniProt P12763 19-359, looked up)
Alpha-2-HS-glycoprotein: IPLDPVAGYKEPACDDPDTEQAALAAVDYINKHLPRGYKHTLNQIDSVKVWPRRPTGEVYDIEIDTLETTCHVLDPTPLANCSVRQQTQHAVEGDCDIHVLKQDGQFSVLFTKCDSSPDSAEDVRKLCPDCPLLAPLNDSRVVHAVEVALATFNAESNGSYLQLVEISRAQFVPLPVSVSVEFAVAATDCIAKEVVDPTKCNLLAEKQYGFCKGSVIQKALGGEDVRVTCTLFQTQPVIPQPQPDGAEAEAPSAVPDAAGPTPSAAGPPVASVVVGPSVVAVPLPLHRAHYDLRHTFSGVASVESSSGEAFHVGKTPIVGQPSIPGGPVRLCPGRIRYFKI
modifications: desialylated
notes: asialofetuin, used as a carbon source in the growth experiment
B2 was tested, and the “growth of V. cholerae” value was “No growth”.
